From PubChem BioAssay AID720589 (Broad Institute, 2013)
Values joined by “and” are separate entries in the source; they are usually repeats but may differ in a detail not shown here. Identical values can stand only once.

system: HepG2 viability, ATP luminescence (CellTiter-Glo), 72 h; assay: ATP-based viability loss in HepG2 cells – cell-based, CellTiter-Glo luminescence, cherry-pick, set 3, cytotoxicity control, dose response (AID 720589)

Row | Compound | AC35
1 | C[C@@H]1CN([C@H](C)CO)C(=O)c2cc(NC(=O)Nc3ccccc3)ccc2O[C@@H]1CN(C)Cc1ccc(C(=O)Nc2ccccc2N)cc1 | 8.38 µM
2 | Oc1cccc(-c2nnc(-c3cccc(O)c3)nn2)c1 | 17.5 µM
3 | CC(=O)OC1CC2(O)C3CCC4CC(O)CCC4(C)C3CCC2(C)C1C1=CC(=O)OC1 (stereo not drawn) | 0.602 µM
4 | Cc1ccc(C)c(S(=O)(=O)N2CCN(c3ncnc4sccc34)CC2)c1 | 4.76 µM
5 | C[C@H](CO)N1C[C@H](C)[C@H](CN(C)CC2CCCCC2)Oc2ccc(NC(=O)CCCCCC(=O)Nc3ccccc3N)cc2CC1=O | 0.219 µM
6 | C[C@]12CC[C@H](O)C[C@H]1CC[C@@H]1[C@@H]2CC[C@]2(C)[C@@H](C3=CC(=O)OC3)CC[C@]12O | 2.6 µM
7 | Nc1ccc(Cn2ccc3c4c(N)nc(N)nc4ccc32)cc1 | 0.137 µM
8 | Cc1c(CCOC(=O)CC23CC4CC(CC(C)(C4)C2)C3)sc[n+]1CC(=O)c1ccccc1 | 18.4 µM
9 | CO[C@H]1CN(C)C(=O)c2ccc(NC(=O)c3ccc(-c4ccccc4)cc3)cc2OC[C@H](C)NC[C@H]1C | 6.36 µM
10 | C[C@@H]1CN([C@@H](C)CO)C(=O)c2cc(NS(=O)(=O)c3ccc(Cl)cc3)ccc2O[C@@H]1CN(C)Cc1ccc(C(=O)Nc2ccccc2N)cc1 | 9.68 µM
11 | CC(C)CC#Cc1ccc([C@@H]2[C@@H](CO)N3CCCCN(S(=O)(=O)c4ccc(F)cc4)C[C@H]23)cc1 | 12.7 µM
12 | C[C@H](CO)N1C[C@H](C)[C@@H](CN(C)Cc2ccc(Oc3ccccc3)cc2)Oc2ccc(NS(=O)(=O)c3ccc(Cl)cc3)cc2CC1=O | 10.3 µM
13 | C=C1C(=O)[C@@]23[C@H](O)C[C@@H]4C(C)(C)CC[C@H](O)[C@@]4(C)[C@@H]2CC[C@@H]1[C@H]3O | 15.3 µM
14 | C[C@@H]1CN([C@@H](C)CO)C(=O)c2cc(NC(=O)c3ccccc3)ccc2O[C@@H](C)CCCCO[C@H]1CN(C)C(=O)Nc1cccc2ccccc12 | 0.927 µM
15 | Cn1ccc2cc(-c3ccc4ncnc(NCc5cccs5)c4c3)ccc21 | 16.6 µM
16 | N#CC(C#N)=C1C=CC=CN1/C(=C\c1ccco1)C(=O)c1ccc(Cl)cc1 | 11.2 µM
17 | O=C1/C(=C\c2ccccc2)CN(C(=O)CCN2CCCCC2)C/C1=C/c1ccccc1 | 3.95 µM
18 | C[C@@H]1CN([C@@H](C)CO)C(=O)Cc2cc(NS(=O)(=O)c3cccs3)ccc2O[C@H]1CN(C)Cc1ccc(Cl)c(Cl)c1 | 0.901 µM
19 | COc1ccc(NC(=O)N2CCCCN3[C@H](CO)[C@H](c4ccc(C#CCC(C)C)cc4)[C@H]3C2)cc1 | 8.68 µM
20 | Cc1c(CC(=O)NCCCC(=O)O)c(=O)oc2cc3c(cc12)CCC(C)(C)O3 | 16.3 µM
21 | Cc1cc(-c2nc3cc(F)ccc3s2)ccc1N | 0.0938 µM
22 | CN(C)c1ncnc2c1ccn2C1OC(CO)C(O)C1O (stereo not drawn) | 0.178 µM

Row | Compound | AC35
23 | Cc1ccc(S(=O)(=O)Nc2ccc3c(c2)C(=O)N([C@H](C)CO)C[C@H](C)[C@@H](CN(C)Cc2ccc(C(F)(F)F)cc2)OCCCC[C@H](C)O3)cc1 | 10 µM
24 | CCc1ccc(/C=C2\SC(=S)N(CCCC(=O)N3CCN(C)CC3)C2=O)cc1 | 8.6 µM
25 | C[C@H](O)C#Cc1ccc2c(c1)O[C@@H](CN(C)Cc1ccc(-c3ccccc3)cc1)[C@H](C)CN([C@@H](C)CO)S2(=O)=O | 3.54 µM and 6.95 µM
26 | O=c1ccc2ccccc2c2ccccc12 | 15.5 µM
27 | CCOc1ccc2nc(NC3=NC(c4ccc(OC)cc4)CC(=O)N3)nc(C)c2c1 (stereo not drawn) | 10.2 µM
28 | CN1C2CCC1/C(=C/c1ccccn1)C(=O)/C2=C\c1ccccn1 | 1.27 µM
29 | CCOc1cc(/C=N/Nc2cc(C)nc(-n3nc(C)cc3C)n2)ccc1O | 1.14 µM
30 | CCCCOc1ccc(NC(=O)C(=O)NCCCn2ccnc2)cc1 | 13.7 µM
31 | O=c1cc(CN2CCN(Cc3ccccc3)CC2)c2ccc(O)c(O)c2o1 | 10.3 µM
32 | CC(C)=CCC/C(C)=C/CN1C(=O)N(c2ccc(F)cc2)[C@H]2C[C@@H](c3ccccc3)[C@@H](C)[C@@H](C(=O)N3CCOCC3)C[C@H]21 | 3.74 µM
33 | Oc1c(C(c2ccc(Cl)cc2)N2CCCC2)cc(Cl)c2cccnc12 (stereo not drawn) | 17.3 µM
34 | COC(=O)C1=C(C)N(Cc2ccccc2C(F)(F)F)C(=NCc2ccc(OC)cc2)NC1c1ccc(C(F)(F)F)cc1 (stereo not drawn) | 11.1 µM
35 | CCCCc1c(Cc2ccccc2)ncn1CCc1ccccc1OC | 13.5 µM
36 | Cc1cccc(CN2C(=O)/C(=C\c3ccc(C(=O)NCCCN4CCN(C)CC4)cc3)Oc3ccccc32)c1 | 11.2 µM
37 | COc1ccc(S(=O)(=O)Nc2ccc3c(c2)C(=O)N([C@H](C)CO)C[C@@H](C)[C@@H](CN(C)CC2CCCCC2)OCCCC[C@H](C)O3)cc1 | 12.2 µM
38 | C[C@H](CO)N1C[C@H](C)[C@H](CN(C)Cc2ccc(Oc3ccccc3)cc2)Oc2ccc(NC(=O)Cn3cnnn3)cc2CC1=O | 6.59 µM
39 | CCCCc1c(-c2ccccc2OC)ncn1Cc1ccc(C(C)(C)C)cc1 | 8.48 µM
40 | CCN1C/C(=C/c2ccc(N3CCOCC3)cc2)C(=O)/C(=C/c2ccc(N3CCOCC3)cc2)C1 | 10.5 µM
41 | O=C1NC(=O)N(c2ccccc2)C(=O)/C1=C\C=C\c1ccccc1 | 5.21 µM
42 | Cc1noc(C)c1NC(=O)Nc1ccc2c(c1)CC(=O)N([C@H](C)CO)C[C@@H](C)[C@@H](CN(C)Cc1ccc(Cl)c(Cl)c1)O2 | 7.54 µM
43 | CN(Cc1cnc2nc(N)nc(N)c2n1)c1ccc(C(=O)N[C@@H](CCC(=O)O)C(=O)O)cc1 | 0.0224 µM
44 | C[C@]12CC[C@H](O)C[C@H]1CC[C@@H]1[C@@H]2C[C@@H](O)[C@]2(C)[C@@H](C3=CC(=O)OC3)CC[C@]12O | 0.373 µM

Row | Compound | AC35
45 | CCOc1cc2[nH]c(=S)n(Cc3ccc(C(=O)NCCN(CC)CC)cc3)c(=O)c2cc1OCC | 15.8 µM
46 | CCc1nc(N)nc(N)c1-c1ccc(Cl)c(N=[N+]=[N-])c1 | 5 µM
47 | Cc1nc(N)nc(N)c1/C=C/C(C)(C)c1ccc(Cl)cc1 | < 0.011 µM
48 | CC1(C)N=C(N)N=C(N)N1c1ccc(CCCCc2ccccc2)cc1 | 2.08 µM
49 | C[C@@H]1CN([C@@H](C)CO)C(=O)c2cc(NS(=O)(=O)c3ccc(F)cc3)ccc2O[C@@H]1CN(C)Cc1ccc(C(=O)Nc2ccccc2N)cc1 | 0.354 µM
50 | C=CCOC(=O)c1sc(NC(=O)c2ccc(OC)cc2)nc1C | 6.33 µM
51 | O=c1[nH]c(=O)n([C@H]2C[C@H](O)[C@@H](CO)O2)cc1C(F)(F)F | 15.6 µM
52 | Cc1ccc(C(=O)O/N=C(\N)c2ccccn2)cc1 | 13.2 µM
53 | O=C(C1CC1)N1C[C@@H]2N[C@H](C1)C2c1ccc(/C=C/c2ccccc2)cc1 (stereo partly drawn) | 10.7 µM
54 | C[C@H]1CN([C@@H](C)CO)C(=O)Cc2cc(NC(=O)CCC(F)(F)F)ccc2O[C@H]1CN(C)Cc1ccc(C(=O)Nc2ccccc2N)cc1 | 2.13 µM
55 | C=C1C(=O)O[C@@H]2[C@H]1[C@@H](OC(=O)/C(C)=C/C)C/C(C)=C\C(=O)/C=C(\C)[C@@H]2O | 12.5 µM
56 | CCc1cccc2c(C(=O)CN3C(=O)NC4(CCCCC4)C3=O)c[nH]c12 | 8.59 µM
57 | C[C@@H]1CN([C@H](C)CO)C(=O)Cc2cc(NC(=O)CCCCCC(=O)Nc3ccccc3N)ccc2O[C@@H]1CN(C)CC1CCCCC1 | 1.93 µM
58 | C=C(C(=O)c1ccccc1)C(C(=C)C(=O)c1ccccc1)c1ccc(OC)cc1 | 8.69 µM
59 | COC1C(C)OC(OC2CC(C)(O)Cc3cc4c(c(O)c32)C(=O)c2c(O)cc3c(c2C4=O)OC2OC3(C)C(O)C(N(C)C)C2O)C(OC)C1(C)OC (stereo not drawn) | 0.133 µM
60 | N=c1ccn2c(n1)O[C@H]1[C@H](O)[C@@H](CO)O[C@H]12 | 1.37 µM
61 | CN(C)CC1CCC/C(=C\c2ccc(OC(=O)c3ccc(Cl)cc3)cc2)C1=O (stereo not drawn) | 9.84 µM
62 | Cc1ccc(C(C)C)c(OCc2ccc(C(=O)N/N=C/c3ccc(O)cc3O)cc2)c1 | 4.24 µM
63 | O=C(c1nnsc1S(=O)c1ccc(Cl)cc1)N1CCOCC1 (stereo not drawn) | 7.87 µM
64 | Oc1[nH]c2ccc(Br)cc2c1N=NC(=S)N1CCOCC1 | 2.9 µM
65 | CCN1/C(=C/C(C)=C/c2sc3ccccc3[n+]2CC)Sc2ccccc21 | 0.838 µM
66 | C[C@]12CCC3C(CCC4=CC(O)CC[C@@]43/C=N/O)C1(O)CCC2C1=CC(=O)OC1 (stereo partly drawn) | 1.57 µM

Row | Compound | AC35
67 | COc1ccc(Nc2ncnc3ccc(Br)cc23)c(OC)c1 | 15.6 µM
68 | CC(C)N1C/C(=C/c2ccsc2)C(=O)/C(=C/c2ccsc2)C1 | 11.7 µM
69 | C[C@@H]1CN([C@@H](C)CO)C(=O)c2cccc(NS(=O)(=O)c3ccc(F)cc3)c2O[C@@H]1CN(C)Cc1ccc(C(=O)Nc2ccccc2N)cc1 | 1.45 µM
70 | COc1ccc([Si](C)(C)[C@H]2[C@H](CCO)O[C@@]3(C(=O)N(c4ccccc4)c4ccccc43)[C@@H]2C)cc1 | 10.5 µM
71 | C=C(C(=O)c1ccccc1)C(C)C(=C)C(=O)c1ccccc1 | 10.2 µM
72 | OC[C@H]1[C@@H](c2ccc(C#CC3CCCC3)cc2)[C@@H]2CN(CCC(F)(F)F)CCCCN12 | 9.23 µM
73 | Cc1ccc(OCCNC(=O)c2cccc(S(=O)(=O)NCc3ccccc3)c2)cc1 | 19.3 µM
74 | Cc1cc(C)c2sc(NNC(=O)c3ccc(S(=O)(=O)N4CCc5ccccc5C4)cc3)nc2c1 | 3.76 µM
75 | C[C@@H]1O[C@@H](O[C@@H]2C=C3CC[C@@H]4C(CC[C@]5(C)[C@@H](c6ccc(=O)oc6)CC[C@]45O)[C@@]3(C)CC2)[C@H](O)[C@H](O)[C@H]1O (stereo partly drawn) | 0.0735 µM
76 | C[C@@H]1CN([C@H](C)CO)C(=O)c2cc(NC(=O)c3ccccc3)ccc2O[C@@H](C)CCCCO[C@H]1CN(C)C(=O)Nc1cccc2ccccc12 | 1.54 µM
77 | Cc1cc(C)cc(N2C(=O)NC(=O)/C(=C\C=C\c3ccco3)C2=O)c1 | 7.27 µM
78 | CCCN1C/C(=C/c2ccc3c(c2)OCO3)C(=O)/C(=C/c2ccc3c(c2)OCO3)C1 | 12.5 µM
79 | COc1cc2c(OC(C)=O)c3c(c(-c4ccc5c(c4)OCO5)c2cc1OC)C(=O)OC3 | 0.465 µM
80 | O=C1Nc2cc(C(=O)NCCN3CCCCCC3)ccc2S/C1=C\c1ccccc1 | 10.7 µM
81 | Nc1nc(=S)c2ncn([C@@H]3O[C@H](CO)[C@@H](O)[C@H]3O)c2[nH]1 | 2.56 µM
82 | CNC[C@H](CC1CCCCC1)NC[C@H](CO)NCCc1cccc(C(F)(F)F)c1 | 7.57 µM
83 | CC12CCC(O)CC1CCC1C2CCC2(C)C(C3=CC(=O)OC3)CCC12O (stereo not drawn) | 1.17 µM
84 | C[C@@H]1CCCCO[C@H](CN(C)Cc2ccc(C(=O)Nc3ccccc3N)cc2)[C@@H](C)CN([C@H](C)CO)C(=O)c2cc(NS(=O)(=O)c3ccc(F)cc3)ccc2O1 | 10.4 µM
85 | Cc1cc2c(C(C)C)c(O)c(O)c(C=O)c2c(O)c1-c1c(C)cc2c(C(C)C)c(O)c(O)c(C=O)c2c1O | 13.7 µM
86 | CN=c1scc(-c2ccccc2F)n1/N=C/c1ccc[nH]1 | 0.638 µM
87 | CC12CCC3C(CCC4(O)CC(O)CCC34C=NO)C1(O)CCC2C1=COC(=O)C1 (stereo not drawn) | 0.155 µM
88 | COc1ccc(/C=C/C(=O)c2cc(F)ccc2OC(=O)c2ccccc2OC)cc1OC | 13.9 µM
